Data reported in US6528510B1, “HIV protease inhibitors” (Warner-Lambert Company, priority 1998, dated 2003).
Read-outs that look alike come from different tables or passages of the source.

What was measured:
[1] = test system: HIV infected lymphocyte derived CEM cells; experiment: Cellular infection assay in CEM cells, XTT cytopathic procedure (EC50); details: for TI (therapeutic index, TC50/EC50): CEM cells; for EC50: Human immunodeficiency virus 1, CCRF-CEM, read-out: Antiviral Efficacy EC50
Experimental: (§1) Compound concentrations were 0.32, 1, 3.2, 10, 32, and 100 uM.

[2] = Rat blood levels after IV dosing; assay type: in vivo; details: plasma, rats, IV dose of 10 mg/kg; for half-life: read-out: T 1/2 (half life) (converted)
Experimental: (§2) The procedure for pharmacokinetics analysis in dogs and rats was similar. For dog studies, two dogs received a single oral 10 mg/kg dose of the HIV protease inhibitor as a solution. The protease inhibitor was dissolve in 0.1N NaOH followed by buffering or diluting with isotonic phosphate buffer or water depending on solubility. For rat studies. two male rats received a single oral 10 mg/kg gavage dose of the HIV protease inhibitor suspended in 0.5% methylcellulose. For the IV administration, the compounds were dissolved in 0.1N sodium hydroxide at a concentration of 10 mg/ml. The IV dose was given bolus. Blood samples were collected prior to dosing and at 0.25, 0.5, 1, 1.5, 2, 3, 4, 8, 12, and 24 hours postdose. Plasma samples were analyzed for the HIV protease inhibitor using a HPLC procedure. The method involved plasma protein precipitation with acetonitrile, reverse-phase chromatographic separation of the HIV protease inhibitor and internal standard, and quantitation by UV detection. Some plasma samples were concentrated by evaporation prior to injection. Pharmacokinetic parameters were determined by noncompartmental analysis of individual rat-plasma concentration-time curves using WinNonlin. Maximum concentration (Cmax) and time for these to occur (tmax) were recorded as observed. Area under concentration-time curve (AUC) values were obtained using the linear trapezoidal rule.

[3] = Cellular toxicity in uninfected CEM cells, XTT (TC50); details: human, uninfected CEM cells (lymphocyte derived)
Experimental: as §1

[4] = target: T1, Recombinant HIV-1 protease (Human immunodeficiency virus type 1 group M subtype B, UniProt P04585); experiment: HIV protease assay (Ki determination, HPLC readout of substrate III cleavage); assay type: biochemical
T1 construct: Recombinant HIV-1 protease (>96% purity); purchased Bachem Bioscience, Inc. (King of Prussia, Pa.)
Experimental: Recombinant HIV-1 protease (>96% purity) and HIV protease substrate III (the undecapeptide H-His-Lys-Ala-Arg-Val-Leu-Nph-Glu-Ala-Nle-Ser-NH2, 97% purity) were purchased from Bachem Bioscience, Inc. (King of Prussia, Pa.).
The methods employed follow the procedures of Tummino, et al., Archives of Biochemistry and Biophysics, 1995;316:523). […] (total volume, […]). […] The final inhibitor concentrations used were 0 (0.1, 0.2, in some experiments), 0.5, 1, 2, 5, 10, 20, 50, and 100 μM. The solution was mixed, incubated for 5 minutes and the reaction quenched by addition of trifluoracetic acid, 2% final. The (leu-p-nitro-phe) bond of the substrate is cleaved by the enzyme and substrate arid products separated by reverse-phase HPLC. Absorbance was measured at 220 nm, peak areas determined, and percentage conversion to product used to calculate percentage control (=[% conversion (+inhibitor)/% conversion (−inhibitor)]×100).

[5] = Mouse blood levels after oral dosing; assay type: in vivo, Charles River CD-1 mice; details: CD-1, mouse, plasma, mice, oral dose of 25 mg/kg; for Cmax: read-out: Cmax (maximum concentration reached within the plasma); for half-life: read-out: T 1/2 (half life) (converted)
Experimental: Charles River CD-1 mice were dosed with a 25 mg/kg drug solution orally by gavage. For oral dosing the compounds were dissolved in 0.1N NaOH (20% final volume) and then 0.5% methylcellulose (80% final volume) was added. Blood was drawn and pooled from 5 mice at each time point via heart puncture and was placed in a 15 mL centrifuge tube containing heparin. The plasma stored in 200 μL aliquots at −80° C. until assayed.
Plasma was thawed at room temperature and then 400 μL of acetonitrile was added to each vial and vortexed. Following centrifugation the supernatant was removed and evaporated in a nitrogen evaporator at 48° C. Residue was then resolublized in 200 μL of a 75% water/25% CH3CN solution for HPLC analysis. HPLC analysis used a Zorbax RX-C8 column (4.6×150 mm) with a 25 mM potassium phosphate buffer with 0.1% TFA, pH 3.0. Mobile phases consisted of varying percentages of two buffer mixtures: Buffer A—90% buffer, 10% CH3CN, and Buffer B—30% buffer, 70% CH3CN.
A standard curve ranging from 0.5 to 50 μg/mL was used for each drug tested. Ten times final concentration solutions of drug in water were prepared from stock solutions of 1 mg/mL drug in DMSO. The final 1:10 dilution was then done in mouse plasma obtained from mice described above.

[6] = Rat blood levels after oral dosing; assay type: in vivo; details: male, plasma, rats, oral dose of 10 mg/kg; for Cmax: read-out: Cmax (maximum concentration reached within the plasma); for half-life: read-out: T 1/2 (half life) (converted)
Experimental: as §2

[7] = recombinant HIV-1 protease, read-out: Inhib of HIV Protease KI

Compound | TI (therapeutic index, TC50/EC50) [1] | EC50 [1] [nM] | C0 [2] [µM] | half-life [2] [h] | CC50 [3] [nM] | Ki [4] [nM] | Ki [4, 7] [nM] | Cmax [5] [µM] | half-life [5] [h] | Cmax [6] [µM] | half-life [6] [h]
CC(C)C1(CCc2ccccc2CO)CC(O)=C(Sc2cc3cc[nH]c3cc2C(C)(C)C)C(=O)O1 (racemic) [Example 69, 4-Hydroxy-3-(6-tert-butyl-indol-5-ylsulfanyl)-6-[2-(2-hydroxymethyl-phenyl)-ethyl]6-isopropyl-5,6-dihydropyran-2-one] | 306 | 180 | 335 | 4.5 | 55000 | 0.67 | – | – | – | – | –
Cc1cc(SC2=C(O)CC(CCc3ccoc3)(C(C)C)OC2=O)c(C(C)(C)C)cc1CO (stereo not shown) [Example 4, 3-(2-tert-Butyl-4-hydroxymethyl-5-methyl-phenylsulfanyl)-6-(2-furan-3-yl-ethyl)-4-hydroxy-6-isopropyl-5,6-dihydro-pyran-2-one] | 199 | 1000 | – | – | 199000 | – | 0.35 | 54 | 5.6 | – | –
Cc1cc(SC2=C(O)CC(CCc3ccco3)(C(C)C)OC2=O)c(C(C)(C)C)cc1CO (stereo not shown) [Example 5, 3-(2-tert-Butyl-4-hydroxymethyl-5-methyl-phenylsulfanyl)-6-(2-furan-2-yl-ethyl)-4-hydroxy-6-isopropyl-5,6-dihydro-pyran-2-one] | 253 | 750 | – | – | 190000 | – | 0.78 | – | – | – | –
Cc1cc(SC2=C(O)CC(CCc3ccsc3)(C(C)C)OC2=O)c(C(C)(C)C)cc1CO (stereo not shown) [Example 7, 3-(2-tert-Butyl-4-hydroxymethyl-5-methyl-phenylsulfanyl)-4-hydroxy-6-isopropyl-6-(2-thiophen-3-yl-ethyl)-5,6-dihydro-pyran-2-one] | 366 | 300 | – | – | 110000 | – | 0.17 | 40 | 3.5 | – | –
Cc1cc(SC2=C(O)CC(CCc3cccs3)(C(C)C)OC2=O)c(C(C)(C)C)cc1CO (stereo not shown) [Example 8, 3-(2-tert-Butyl-4-hydroxymethyl-5-methyl-phenylsulfanyl)-4-hydroxy-6-isopropyl-6-(2-thiophen-2-yl-ethyl)-5,6-dihydro-pyran-2-one] | 161 | 500 | – | – | 80500 | – | 0.35 | – | – | – | –
Cc1cc(SC2=C(O)CC(CCc3csc(CO)c3)(C(C)C)OC2=O)c(C(C)(C)C)cc1CO (stereo not shown) [Example 9] | 117 | 1800 | – | – | 210000 | – | 0.19 | – | – | – | –
Cc1cc(SC2=C(O)CC(CCc3ccsc3CO)(C(C)C)OC2=O)c(C(C)(C)C)cc1N (stereo not shown) [Example 11, 3-(4-Amino-2-tert-butyl-5-methyl-phenylsulfanyl)-4-hydroxy-6-[2-(2-hydroxymethyl-thiophen-3-yl)-ethyl]-6-isopropyl-5,6-dihydro-pyran-2-one] | 458 | 290 | – | – | 133000 | – | 0.23 | – | – | – | –
CC(C)[C@]1(CCc2ccccc2)CC(O)=C(Sc2cc3sc(N)nc3cc2C(C)(C)C)C(=O)O1 [Example 13, (S)-3-(2-Amino-5-tert-butyl-benzothiazol-6-ylsulfanyl)-4-hydroxy-6-isopropyl-6-phenethyl-5,6-dihydro-pyran-2-one] | 152 | 280 | – | – | 42000 | – | – | – | – | 5.1 | 8.6
CC(C)c1cc2nc(N)sc2cc1SC1=C(O)C[C@@](CCc2ccccc2)(C(C)C)OC1=O [Example 14, (S)-3-(2-Amino-5-isopropyl-benzothiazol-6-ylsulfanyl)-4-hydroxy-6-isopropyl-6-phenethyl-5,6-dihydro-pyran-2-one] | 30 | 2500 | – | – | 75000 | – | 0.67 | – | – | – | –
CC(C)C1(CCc2ccccc2CO)CC(O)=C(Sc2sc3ccccc3c2C(C)(C)C)C(=O)O1 (stereo not shown) [Example 22, 3-(3-tert-Butyl-benzo[b]thiophen-2-yl-sulfanyl)-4-hydroxy-6-[2-(2-hydroxymethyl-phenyl)-ethyl]-6-isopropyl-5,6-dihydro-pyran-2-one] | 43 | 1500 | – | – | 66000 | – | 0.85 | – | – | – | –
Cc1cc(SC2=C(O)CC(CCc3nccs3)(C(C)C)OC2=O)c(C(C)(C)C)cc1CO (stereo not shown) [Example 25, 3-(2-tert-Butyl-4-hydroxymethyl-5-methyl-phenylsulfanyl)-4-hydroxy-6-isopropyl-6-(2-thiazol-2-yl-ethyl)-5,6-dihydro-pyran-2-one] | 308 | 700 | 120 | 8 | 216000 | – | 0.57 | 33 | 3.3 | 6 | 12
Cc1csc(CCC2(C(C)C)CC(O)=C(Sc3cc(C)c(CO)cc3C(C)(C)C)C(=O)O2)n1 (stereo not shown) [Example 26, 3-(2-tert-Butyl-4-hydroxymethyl-5-methyl-phenylsulfanyl)-4-hydroxy-6-isopropyl-6-[2-(4-methyl-thiazol-2-yl)-ethyl]-5,6-dihydro-pyran-2-one] | 213 | 800 | – | – | 171000 | – | 0.45 | – | – | – | –
CC(C)c1cc2ncsc2cc1SC1=C(O)C[C@@](CCc2ccc(O)cc2)(C(C)C)OC1=O [Example 48, (S)-4-Hydroxy-6-[2-(4-hydroxy-phenyl)-ethyl]-6-isopropyl-3-(5-isopropyl-benzothiazol-6-ylsulfanyl)-5,6-dihydro-pyran-2-one] | 78 | 370 | – | – | 29000 | 0.4 | – | – | – | – | –
CC(C)[C@]1(CCc2ccccc2)CC(O)=C(Sc2cc3cc[nH]c3cc2C(C)(C)C)C(=O)O1 [Example 73, (S)-3-(6-tert-Butyl-1H-indol-5-yl-sulfanyl)-4-hydroxy-6-isopropyl-6-(2-phenethyl)-5,6-dihydro-pyran-2-one] | 69 | 610 | – | – | 42000 | 0.54 | – | – | – | – | –
CC(C)[C@]1(CCc2ccccc2)CC(O)=C(Sc2cc3sc(NS(C)(=O)=O)nc3cc2C(C)(C)C)C(=O)O1 [Example 79, (S)-N-[5-tert-Butyl-6-(4-hydroxy-6-isopropyl-2-oxo-6-phenethyl-5,6-dihydro-2H-pyran-3-ylsulfanyl)-benzothiazol-2-yl]-methanesulfonamide] | 56 | 2200 | – | – | 125000 | 2.1 | – | – | – | – | –
CC(C)[C@]1(CCc2cccc(F)c2)CC(O)=C(Sc2cc3sc(N)nc3cc2C(C)(C)C)C(=O)O1 [Example 83, (S)-3-(2-Amino-5-tert-butyl-benzothiazol-6-ylsulfanyl)-6-[2-(3-fluoro-phenyl)-ethyl]-4-hydroxy-6-isopropyl-5,6-dihydro-pyran-2-one] | 235 | 260 | 199 | 4 | 61000 | 0.44 | – | – | – | – | –
